Entries after “also recorded” stand apart in the source; their conditions may differ.
Columns and labels:
[1] = tested on: C57BL/6J mice, caerulein-evoked acute pancreatitis; assay: Caerulein-evoked acute pancreatitis mouse model; type: in vivo; conditions: 10 mg/kg i.p., 30 min before caerulein
Protocol: C57BL/6J male mice 8-10 weeks of age were subjected to acute pan-creatitis by intraperitoneal injections of supramaximal doses of caerulein (50 μg/kg) every hour for a total of 6 h, as previously described in^61. Control animals received 25% DMSO-saline solution by intraperitoneal injection every hour for 6 h. Compound 16-8 was dissolved in this vehicle (10 mg/kg) and injected i.p. 30 min prior to the first injection of caerulein. Animals were sacrificed 1 h after the last injection. Blood was collected and pancreatic tissue was promptly isolated, weighed for determination of pancreas wet weight/body weight ratio. Samples of tis-sues were fixed overnight in 10% neutral-buffered formalin, paraffin embedded and H&E-stained, or pancreatic tissue was quickly frozen and assessed for myeloperoxidase (MPO) activity. Serum amylase, MPO and histologic evaluation were conducted as described previously^61.
Assessment of nocifensive behavior^8: Mice were housed in individual cages and video-recorded during the entire experiment. Two mice at a time were observed. Linear movement was measured as one event when mice passed through the median plane of the cage. Analysis began immediately after the first caerulein/vehicle injec-tion and continued until the end of the experiment. Results were expressed as the sum of the movement events spanning the 6 h time-period following the first injection.

[2] = Stability of compound in plasma; conditions: 4 h incubation in plasma at 37° C.
Excerpt: Results are expressed as means±SEM, n=6 mice/experimental group for all experiments.

[3] = tested on: primary mouse keratinocytes (1° MK); assay: UVB-evoked Ca++ signaling in primary mouse keratinocytes (fluo-4); type: cell-based
Protocol: Ca++ imaging of 1° MK was conducted following routine procedures. For UVB stimulation, a customized device was built. The system comprised a printed circuit board for electrical interconnects and mechanical support and an ultraviolet light-emitting diode (UV LED).
The operating wavelength was 295 nm (FIG. 2A), with a full-width half-max of 12 nm. The optical power was 500 mW. The focal point was aimed at the plane of the upper surface of the quartz coverslip, which was used to minimize UV absorption along the optical path towards the cells (FIG. 2A-C). The optical intensity at the focal point was estimated to be 150 mW/mm^2.
(§1) Ca++ imaging of mouse 1° MK in response to chemical activation of TRPV4 was conducted after loading with 2 μM fura2-AM, following a ratiometric Ca2+ imaging protocol with 340/380 nm […] for dual excitation. Ratios of emissions were acquired at 0.5 Hz. ΔR/R0 was determined as the fraction of the increase of a given ratio over baseline ratio, divided by baseline ratio. For stimulation of cells with UVB, where fura-2 was not suitable because of the proximity of stimulation with 340/380 nm and 295 nm, 2 μM fluo4-AM was used instead. Ca++ imaging was carried out at 488 nm excitation, acquisition of emissions at 0.5 Hz, expressed as ΔF/F0. In the custom-built UV optical system, UV LEDs were capped with a ball lens, a transparent optical window in the shape of a hemispherical lens (FIG. 2B). The LED output optical beam focused at 15-20 mm from the lens, with a spot diameter of approximately 1.5-2.0 mm (FIG. 2C). […] The thermal equilibration stage was set for physiological temperature.

TRPV4 = biological target: T1, TRPV4 (Mus musculus, UniProt Q9EPK8); assay: Ca++ transients in primary mouse keratinocytes on chemical activation of TRPV4 (GSK101, 4α-PDD); type: cell-based; conditions: 1° MK, 5 nM GSK101; GSK205 20 μM
T1 construct: endogenous in cells; host or cells: primary mouse epidermal keratinocytes (1° MK)
Protocol: as §1, with “temperature. We confirmed the non-thermal nature of UVB stimulation using the customized 295 nm LED device in a dedicated experiment (FIG. 2D), thus confirming the specific modality of stimulation as UVB.” for “temperature.”

[4] = tested on: primary mouse keratinocytes (1° MK); assay: ET1 secretion by non-stimulated primary mouse keratinocytes (ELISA); type: cell-based
Protocol: FIGS. 8A-8D: Central role for KC TRPV4 in UVB-evoked Ca^++ signaling and nocifensive behavior—ET1-related supplementary findings. (FIG. 8A) Augmentation of GSK101-evoked Ca^++ signaling by ET1. Shown are averaged Ca^++ measurements (fura-2) in response to 5 nM GSK101. Note the increase in signal in response to co-exposure to ET1. (FIG. 8B) ET1 secretion by non-stimulated 1° MK depends on TRPV4 and PLC. Shown are relative ET1 concentrations (determined by ELISA, pg/mL; vehicle-treated and WT control normalized to 100) in supernatant of non-stimulated 1° MK. Note the clear dependence on TRPV4, as indicated by a 50% reduction in Trpv4^−/− 1° MK. […] There is also down-regulation of ET1 secretion by a specific inhibitor of PLC (U73122), and by an ET-convertase inhibitor, CGS35066, which served as a control compound. In addition, PLC-inhibitor robustly affects ET1 secretion in WT and Trpv4^−/− 1° MK. (FIG. 8C) ET1 expression by UVB-exposed 1° MK depends on TRPV4 and PLC—immunocytochemistry. Shown is specific ET1 immunolabeling in 1° MK, exposed to UVB using the UVB-LEDs, as for Ca^++ imaging. Use of the UVB-LED device precluded application of a ET1 ELISA, only irradiated cells could be examined. […] (FIG. 8D) ET1 expression by UVB-exposed 1° MK depends on TRPV4 and PLC—quantification of immunocytochemistry.

[5] = tested on: trigeminal formalin-evoked pain behavior; conditions: dose-dependent, intradermal injection; cited from earlier work

T1 sequence (Q9EPK8 whole entry): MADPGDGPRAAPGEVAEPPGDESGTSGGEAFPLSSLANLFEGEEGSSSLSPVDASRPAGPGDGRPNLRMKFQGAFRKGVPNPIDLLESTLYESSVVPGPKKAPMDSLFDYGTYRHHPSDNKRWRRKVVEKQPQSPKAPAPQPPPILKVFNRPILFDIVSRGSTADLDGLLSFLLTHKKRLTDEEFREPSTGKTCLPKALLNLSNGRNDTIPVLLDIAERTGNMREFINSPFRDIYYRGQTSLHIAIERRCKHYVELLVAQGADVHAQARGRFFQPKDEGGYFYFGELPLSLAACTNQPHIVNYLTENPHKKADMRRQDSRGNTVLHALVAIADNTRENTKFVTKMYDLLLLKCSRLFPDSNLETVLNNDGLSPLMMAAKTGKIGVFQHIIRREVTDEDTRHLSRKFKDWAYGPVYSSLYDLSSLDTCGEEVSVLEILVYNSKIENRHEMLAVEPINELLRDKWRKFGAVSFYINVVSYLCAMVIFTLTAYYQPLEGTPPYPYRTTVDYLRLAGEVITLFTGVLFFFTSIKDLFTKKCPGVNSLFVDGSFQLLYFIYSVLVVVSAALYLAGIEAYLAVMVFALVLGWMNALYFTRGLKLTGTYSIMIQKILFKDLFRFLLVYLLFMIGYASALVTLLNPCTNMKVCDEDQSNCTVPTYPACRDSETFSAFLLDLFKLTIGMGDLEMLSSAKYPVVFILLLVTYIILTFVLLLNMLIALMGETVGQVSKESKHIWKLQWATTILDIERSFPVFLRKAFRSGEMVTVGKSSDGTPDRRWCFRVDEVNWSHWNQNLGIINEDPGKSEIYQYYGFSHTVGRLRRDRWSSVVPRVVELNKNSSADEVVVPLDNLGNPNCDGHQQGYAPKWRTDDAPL

Structure (SMILES): CN(CCc1ccc(Nc2nc(-c3ccccc3)cs2)cc1)Cc1ccccc1 [Compound 16-8]
- histopathological score for pancreas inflammation [1]: significantly reduced
- myelo-peroxidase content of the pancreas [1]: significantly reduced
- pain behavior (movement events over 6 h) [1]: virtually eliminated
- pancreatic edema [1]: virtually eliminated
- serum amylase [1]: significantly reduced; also recorded: reduced, but not significantly

Structure (SMILES): CCN(CCc1ccc(Nc2nc(-c3ccccc3)cs2)cc1)Cc1ccccc1 [Compound 16-19]
- stability in plasma [2]: no loss of detectable compound

Structure (SMILES): CN(CCc1ccc(Nc2nc(-c3cccnc3)cs2)cc1)Cc1ccccc1 [GSK205]
- UVB-evoked Ca++ signal ([3]; GSK205 20 μM): strongly down-regulated
- ET1-augmented UVB-induced Ca++ transients ([3]; co-exposure to ET1): greatly diminished
- GSK101-evoked Ca++ transient (TRPV4): completely blocked
- ET1 secretion, supernatant of non-stimulated 1° MK [4]: significant down-regulation
- trigeminal formalin-evoked pain behavior, earlier study [5]: effective attenuation
